System: HBECs
Assay: TEER (epithelial barrier function) in differentiated HBECs, Ussing chamber
Assay type: cell-based, human
Experimental: High individual variation in benzamil-sensitive current and TEER in HBECs. In an Ussing chamber-based experimental design, basal short-circuit current (Isc) and transepithelial electrical resistance (TEER) were recorded in differentiated HBECs from two lung donors that were grown on snapwells at an air-liquid interface for 28 to 35 days. Benzamil, a potent ENaC blocker was used to determine ENaC activity by calculating benzamil-sensitive Isc from changes in Isc that occur 15 minutes after adding 6 μM benzamil to the apical side of cells. […] Therefore, normalized data were used for all subsequent experiments for statistical analyses relating to FIGS. 13-18.
Basal treatment with cytokines [IL-13 (Abcam), IL-4 (PeproTech), TNF-α, IFN-γ and TGF-β1 (R&D Systems)] diluted in ALI medium started as early as day 14 post differentiation. Individual cytokines or cytokine cocktails were added to the culture medium at the desired concentrations and cells were incubated with the cytokines for a maximum of 16 days. ALI medium containing cytokines was changed every two days. Age-matched HBECs were assigned to the following treatment groups:
II Time-dependent studies: These studies were done using a concentration that ensured maximum inhibition of benzamil-sensitive Isc and TEER. HBECs were treated with respective cytokines for 2, 4, 6, 8, 10, 12, 14, or 16 days. IFN-γ, TNF-α or TGF-β1 at 1 ng/mL, IL-13 at 20 ng/mL and IL-4 at 2 ng/mL were used.
III Cytokine cocktails: were prepared using IFN-γ and TNF-α at 0.05, 0.5, 2.5, 5 and 10 ng/mL while TNF-α, IFN-γ and TGF-β1 at 1 ng/mL for each of the cytokines was added to the culture media for 7 days.
Ussing chamber experiments: Snapwells with differentiated HBECs that were incubated with cytokines or age-matched HBECs without cytokine exposure were mounted in Ussing chambers (Physiologic Instruments), and cells were either bathed in isotonic ringer solution containing 113.8 mM Na^+, 93.6 mM Cl^−, 25 mM HCO3^−, 5.2 mM K^+, 2.4 mM HPO4^−, 0.4 mM H2PO4^−, 1.2 mM Mg^2+, 1.2 mM Ca^2+, and 75 mM mannitol, or in AA-EC01. Glucose (5 mM) was added to the basal side, and chambers were bubbled with 95% O2 and 5% CO2 at 37° C. AA-EC01 contained 8 mM lysine, 8 mM tryptophan, 8 mM arginine, 8 mM glutamine, and 1.2 mM tyrosine, and AANC contained 8 mM leucine, 8 mM cysteine, 8 mM isoleucine, 8 mM aspartic acid and 8 mM glutamate (Ajinomoto), both diluted in an electrolyte solution containing 113.8 mM Na^t, 93.6 mM Cl^−, 25 mM HCO3^−, 5.2 mM K^+, 2.4 mM HPO4^−, 0.4 mM H2PO4^−, 1.2 mM Mg′, 1.2 mM Ca^2+ and 40 mM mannitol at pH 7.4 and 300 mOsm. Cell cultures were allowed to equilibrate in the Ussing chambers for 30 minutes while continuously voltage clamped to 0 mV. Basal short circuit current (Isc) and transepithelial electrical resistance (TEER) were recorded at 30-second intervals, and benzamil-sensitive Isc was calculated from the difference of basal Isc recorded after 30 minutes and Isc measured at 15 minutes after adding 6 μM of benzamil (ThermoFisher) to the apical side.
Statistical analysis: Results are presented as mean±standard error of mean (SEM). Analyses were performed with OriginPro 2018 software package. For each treatment group, values were tested for normal distribution using the Shapiro-Wilk normality test. […] The values were normalized to controls within the group, and data were pooled for comparison between groups. Kruskal-Wallis test was used for comparing the overall effect of ringer, AA-EC01 and AANC on benzamil-sensitive Isc and TEER, and Mann Whitney U test was used for pairwise comparison within the group and for comparison between basal values for each cytokine at zero ng/mL or day zero with each concentration and time period studied. P<0.05 was considered significant, and NS indicates not significant.

## IL-13: Th2 cytokine (Abcam) added to HBEC culture medium
IL-13 2 ng/mL, 14 days
  TEER, normalized to control: 59.9±7.6%
IL-13 4 ng/mL, 14 days
  TEER, normalized to control (maximum reduction): 41.3±6.9%
IL-13 20 ng/mL, day 10
  TEER, normalized to control (maximum reduction): 48.7±3.6%

— US20230201151A1, “FORMULATIONS AND METHODS FOR TREATING ACUTE RESPIRATORY DISTRESS SYNDROME, ASTHMA, OR ALLERGIC RHINITIS” (UNIVERSITY OF FLORIDA RESEARCH FOUNDATION, INC., priority 2020, published 2023)
